Laboratory results from publication PMC8500670, “A selective WDR5 degrader inhibits acute myeloid leukemia in patient-derived mouse models” (Science translational medicine, 2021).

Legend:
Test in all cases: biochemical
Design in all cases: protein methyltransferase inhibition panel, single concentration, duplicate
NSD1 = NSD1 (Homo sapiens, UniProt Q96L73)
Description: (§1) We next assessed selectivity of MS67 against 22 protein methyltransferases (table S2) and a broad panel of common drug targets including 45 kinases (table S3) and 44 G protein–coupled receptors (GPCR), ion channels, and transporters (table S4). […] We subsequently determined that MS67 had moderate binding affinity (Ki = 1.0 ± 0.8 μM) to Sigma 2 receptor (fig. S10).

SMYD3 = molecular target: T1, SMYD3 (Homo sapiens, UniProt Q9H7B4)
T1 sequence (Q9H7B4 1-428): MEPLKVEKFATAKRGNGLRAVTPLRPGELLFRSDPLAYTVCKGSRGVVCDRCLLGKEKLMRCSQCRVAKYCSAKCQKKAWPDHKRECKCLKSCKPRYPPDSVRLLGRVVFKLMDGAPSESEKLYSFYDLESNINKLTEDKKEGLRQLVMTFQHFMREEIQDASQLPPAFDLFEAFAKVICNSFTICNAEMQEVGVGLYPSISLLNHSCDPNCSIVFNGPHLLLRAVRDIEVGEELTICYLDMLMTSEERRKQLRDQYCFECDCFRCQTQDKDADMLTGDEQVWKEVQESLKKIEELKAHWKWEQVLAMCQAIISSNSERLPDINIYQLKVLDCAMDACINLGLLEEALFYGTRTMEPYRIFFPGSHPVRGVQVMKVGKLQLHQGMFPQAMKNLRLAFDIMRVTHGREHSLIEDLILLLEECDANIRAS
Description: as §1

SUV39H2 = SUV39H2 (Homo sapiens, UniProt Q9H5I1)
Description: as §1

PRMT1 = PRMT1 (Homo sapiens, UniProt Q99873)
Description: as §1

PRMT8 = PRMT8 (Homo sapiens, UniProt Q9NR22)
Description: as §1

DOT1L = DOT1L (Homo sapiens, UniProt Q8TEK3)
Description: as §1

NSD3 = molecular target: T2, NSD3 (Homo sapiens, UniProt Q9BZ95)
T2 sequence (Q9BZ95 1-1437): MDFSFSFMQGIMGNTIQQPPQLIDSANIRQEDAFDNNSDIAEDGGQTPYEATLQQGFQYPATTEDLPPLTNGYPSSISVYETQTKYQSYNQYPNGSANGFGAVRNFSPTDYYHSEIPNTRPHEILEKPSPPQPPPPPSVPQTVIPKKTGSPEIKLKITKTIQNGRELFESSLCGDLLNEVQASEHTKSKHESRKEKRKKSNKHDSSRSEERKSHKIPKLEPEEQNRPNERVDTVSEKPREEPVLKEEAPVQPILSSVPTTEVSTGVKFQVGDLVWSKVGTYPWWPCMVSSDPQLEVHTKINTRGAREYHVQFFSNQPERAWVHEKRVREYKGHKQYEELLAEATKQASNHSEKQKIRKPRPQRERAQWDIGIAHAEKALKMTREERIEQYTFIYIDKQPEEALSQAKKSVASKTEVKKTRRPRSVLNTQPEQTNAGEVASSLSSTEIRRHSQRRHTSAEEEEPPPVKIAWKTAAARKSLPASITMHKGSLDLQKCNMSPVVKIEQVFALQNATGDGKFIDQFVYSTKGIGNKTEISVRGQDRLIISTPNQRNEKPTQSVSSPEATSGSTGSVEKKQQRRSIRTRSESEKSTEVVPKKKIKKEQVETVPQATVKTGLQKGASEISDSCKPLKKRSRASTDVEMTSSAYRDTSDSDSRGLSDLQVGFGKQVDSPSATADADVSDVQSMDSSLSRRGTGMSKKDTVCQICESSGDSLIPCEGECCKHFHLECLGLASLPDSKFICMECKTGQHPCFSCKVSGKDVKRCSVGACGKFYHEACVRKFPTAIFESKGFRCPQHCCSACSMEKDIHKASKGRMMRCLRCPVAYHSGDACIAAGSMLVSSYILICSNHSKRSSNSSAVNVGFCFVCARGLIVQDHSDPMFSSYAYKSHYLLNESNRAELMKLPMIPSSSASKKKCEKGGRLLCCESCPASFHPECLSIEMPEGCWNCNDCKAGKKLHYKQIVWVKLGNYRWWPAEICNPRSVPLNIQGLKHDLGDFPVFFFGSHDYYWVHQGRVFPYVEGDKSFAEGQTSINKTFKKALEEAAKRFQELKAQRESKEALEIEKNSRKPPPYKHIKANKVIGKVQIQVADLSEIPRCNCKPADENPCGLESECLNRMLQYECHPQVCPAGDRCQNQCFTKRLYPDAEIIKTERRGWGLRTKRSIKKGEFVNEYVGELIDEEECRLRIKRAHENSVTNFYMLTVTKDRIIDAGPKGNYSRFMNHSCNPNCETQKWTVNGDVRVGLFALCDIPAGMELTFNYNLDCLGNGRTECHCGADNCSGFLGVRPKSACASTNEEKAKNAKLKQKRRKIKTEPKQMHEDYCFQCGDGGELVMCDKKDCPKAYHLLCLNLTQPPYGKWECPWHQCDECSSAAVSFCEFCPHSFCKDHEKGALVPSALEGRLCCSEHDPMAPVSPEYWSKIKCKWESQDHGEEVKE
Description: as §1

Measured: inhibition at 10 µM

Chain of PRMT8 (Q9NR22 whole entry): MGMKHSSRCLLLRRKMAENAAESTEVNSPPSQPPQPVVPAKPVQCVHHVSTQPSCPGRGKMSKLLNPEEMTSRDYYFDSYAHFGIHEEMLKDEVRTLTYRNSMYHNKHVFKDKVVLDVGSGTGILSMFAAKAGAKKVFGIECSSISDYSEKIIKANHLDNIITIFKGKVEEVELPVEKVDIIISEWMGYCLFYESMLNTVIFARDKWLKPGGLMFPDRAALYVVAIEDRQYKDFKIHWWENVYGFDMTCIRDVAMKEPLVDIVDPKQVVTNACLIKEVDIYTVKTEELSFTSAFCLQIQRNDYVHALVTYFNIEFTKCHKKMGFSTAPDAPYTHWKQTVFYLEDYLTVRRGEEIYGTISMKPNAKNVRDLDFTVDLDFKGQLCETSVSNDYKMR
Chain of SUV39H2 (Q9H5I1 whole entry): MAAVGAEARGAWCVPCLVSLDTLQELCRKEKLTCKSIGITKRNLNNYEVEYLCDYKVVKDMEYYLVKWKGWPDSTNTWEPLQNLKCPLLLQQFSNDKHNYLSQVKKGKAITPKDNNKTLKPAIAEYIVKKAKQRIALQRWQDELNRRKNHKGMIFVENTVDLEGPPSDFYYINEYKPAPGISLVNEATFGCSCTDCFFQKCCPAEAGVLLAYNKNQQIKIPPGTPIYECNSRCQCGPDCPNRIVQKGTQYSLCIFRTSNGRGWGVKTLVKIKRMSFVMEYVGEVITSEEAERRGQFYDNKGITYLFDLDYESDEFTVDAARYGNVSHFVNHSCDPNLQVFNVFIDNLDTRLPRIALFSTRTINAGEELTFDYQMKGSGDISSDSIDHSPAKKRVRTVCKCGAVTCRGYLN
Chain of PRMT1 (Q99873 whole entry): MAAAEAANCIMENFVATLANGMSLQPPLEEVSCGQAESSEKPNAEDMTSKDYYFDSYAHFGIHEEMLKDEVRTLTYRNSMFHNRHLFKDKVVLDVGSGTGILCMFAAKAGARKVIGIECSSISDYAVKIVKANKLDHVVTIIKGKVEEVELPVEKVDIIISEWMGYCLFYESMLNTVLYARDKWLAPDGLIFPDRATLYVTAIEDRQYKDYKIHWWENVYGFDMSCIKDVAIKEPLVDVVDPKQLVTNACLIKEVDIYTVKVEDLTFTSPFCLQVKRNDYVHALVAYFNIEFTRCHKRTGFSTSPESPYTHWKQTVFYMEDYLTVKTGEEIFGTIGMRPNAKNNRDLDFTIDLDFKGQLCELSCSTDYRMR
Chain of NSD1 (Q96L73 whole entry): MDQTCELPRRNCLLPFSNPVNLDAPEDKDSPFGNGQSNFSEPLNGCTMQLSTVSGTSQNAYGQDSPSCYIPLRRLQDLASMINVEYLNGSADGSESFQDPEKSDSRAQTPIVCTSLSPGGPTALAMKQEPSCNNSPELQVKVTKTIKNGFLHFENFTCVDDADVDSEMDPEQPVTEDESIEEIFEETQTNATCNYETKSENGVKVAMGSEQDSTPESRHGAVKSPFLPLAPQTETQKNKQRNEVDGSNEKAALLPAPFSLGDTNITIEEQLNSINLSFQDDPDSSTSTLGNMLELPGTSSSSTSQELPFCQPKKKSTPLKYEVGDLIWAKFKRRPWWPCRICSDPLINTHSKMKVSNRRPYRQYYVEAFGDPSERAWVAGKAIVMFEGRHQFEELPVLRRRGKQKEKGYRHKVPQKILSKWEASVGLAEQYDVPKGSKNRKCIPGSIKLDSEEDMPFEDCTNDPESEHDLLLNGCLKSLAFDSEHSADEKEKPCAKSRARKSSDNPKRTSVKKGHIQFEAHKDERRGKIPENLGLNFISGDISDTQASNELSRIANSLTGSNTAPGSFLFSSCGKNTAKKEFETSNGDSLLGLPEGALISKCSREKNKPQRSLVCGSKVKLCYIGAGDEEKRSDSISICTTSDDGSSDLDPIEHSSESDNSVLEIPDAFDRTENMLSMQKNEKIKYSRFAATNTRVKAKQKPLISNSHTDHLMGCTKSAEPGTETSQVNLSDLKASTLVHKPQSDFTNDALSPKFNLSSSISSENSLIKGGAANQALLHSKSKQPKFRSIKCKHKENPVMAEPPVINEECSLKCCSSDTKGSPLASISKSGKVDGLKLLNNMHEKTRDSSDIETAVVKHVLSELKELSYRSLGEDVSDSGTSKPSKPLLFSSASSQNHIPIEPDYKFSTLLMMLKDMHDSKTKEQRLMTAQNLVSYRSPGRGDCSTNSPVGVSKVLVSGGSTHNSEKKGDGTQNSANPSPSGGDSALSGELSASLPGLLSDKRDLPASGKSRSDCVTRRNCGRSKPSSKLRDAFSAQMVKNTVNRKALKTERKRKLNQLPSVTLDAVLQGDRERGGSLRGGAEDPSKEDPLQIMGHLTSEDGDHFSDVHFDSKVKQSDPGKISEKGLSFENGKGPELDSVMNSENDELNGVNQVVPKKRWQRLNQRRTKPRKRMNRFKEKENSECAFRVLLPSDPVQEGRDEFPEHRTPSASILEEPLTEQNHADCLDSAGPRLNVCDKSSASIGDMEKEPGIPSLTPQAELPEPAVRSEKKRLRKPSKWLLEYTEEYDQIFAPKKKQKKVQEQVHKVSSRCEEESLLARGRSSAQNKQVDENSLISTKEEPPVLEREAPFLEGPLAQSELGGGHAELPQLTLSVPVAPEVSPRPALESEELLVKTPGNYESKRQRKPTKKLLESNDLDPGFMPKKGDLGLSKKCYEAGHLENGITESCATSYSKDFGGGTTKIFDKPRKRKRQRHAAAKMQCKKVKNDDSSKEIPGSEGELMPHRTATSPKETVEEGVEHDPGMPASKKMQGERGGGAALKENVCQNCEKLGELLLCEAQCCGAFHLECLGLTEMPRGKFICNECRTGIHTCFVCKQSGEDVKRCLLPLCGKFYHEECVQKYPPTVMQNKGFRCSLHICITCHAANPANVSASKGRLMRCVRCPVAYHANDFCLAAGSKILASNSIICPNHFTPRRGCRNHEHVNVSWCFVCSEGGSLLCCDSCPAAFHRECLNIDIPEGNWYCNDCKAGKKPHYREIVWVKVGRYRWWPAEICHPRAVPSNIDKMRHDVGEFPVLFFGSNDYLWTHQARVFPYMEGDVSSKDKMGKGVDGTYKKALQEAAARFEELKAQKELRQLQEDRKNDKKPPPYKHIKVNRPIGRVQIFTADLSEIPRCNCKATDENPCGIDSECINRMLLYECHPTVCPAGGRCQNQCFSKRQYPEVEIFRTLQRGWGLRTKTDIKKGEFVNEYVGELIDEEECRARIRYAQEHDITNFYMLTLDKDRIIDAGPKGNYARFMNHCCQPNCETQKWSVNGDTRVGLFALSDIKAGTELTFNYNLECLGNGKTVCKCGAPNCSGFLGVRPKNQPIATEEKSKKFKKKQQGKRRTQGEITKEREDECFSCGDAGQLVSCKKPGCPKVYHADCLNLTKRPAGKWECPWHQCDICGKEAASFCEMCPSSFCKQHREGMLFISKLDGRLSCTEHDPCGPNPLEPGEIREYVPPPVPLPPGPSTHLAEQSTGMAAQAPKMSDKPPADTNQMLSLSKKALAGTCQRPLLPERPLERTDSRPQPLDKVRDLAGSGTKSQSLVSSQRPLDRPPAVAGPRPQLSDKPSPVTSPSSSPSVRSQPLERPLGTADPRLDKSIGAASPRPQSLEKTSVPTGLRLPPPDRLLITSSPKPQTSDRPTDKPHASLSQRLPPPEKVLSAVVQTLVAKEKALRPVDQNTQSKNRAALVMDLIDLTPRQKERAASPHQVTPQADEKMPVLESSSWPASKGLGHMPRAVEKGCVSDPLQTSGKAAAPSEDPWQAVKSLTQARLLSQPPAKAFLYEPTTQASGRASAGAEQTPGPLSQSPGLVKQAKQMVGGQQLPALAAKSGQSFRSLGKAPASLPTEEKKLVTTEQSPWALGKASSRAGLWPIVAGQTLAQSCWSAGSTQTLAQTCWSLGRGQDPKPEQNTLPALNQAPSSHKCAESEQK

Cc1ncsc1-c1ccc([C@H](C)NC(=O)[C@@H]2C[C@@H](O)CN2C(=O)[C@@H](NC(=O)CNC(=O)c2ccc(F)c(-c3ccc(N4C[C@@H](C)N(C)[C@@H](C)C4)c(NC(=O)c4c[nH]c(=O)cc4C(F)(F)F)c3)c2)C(C)(C)C)cc1 [MS67]
< 10%: NSD1 | SMYD3 | SUV39H2 | PRMT1 | PRMT8 | DOT1L | NSD3
